Reference: PMC6689897, “Drugging an undruggable pocket on KRAS” (Proceedings of the National Academy of Sciences of the …, 2019)

Columns and labels:
KRAS = KRAS (Homo sapiens, UniProt P01116, G12D); experiment: Alpha Screen PPI assays, summary over KRAS interactions (SOS1, CRAF, PI3Kα); type: biochemical; conditions: interaction not given
From the text: Using biochemical assays, we investigated whether 1 inhibited 3 of the 4 PPIs important for KRAS cycling (Fig. 5 A, i–iii). Namely, 1) GDP-KRAS interaction with the catalytic site of SOS ([33]), 2) GTP-KRAS interaction with the allosteric site of SOS ([34]), and 3) GTP-KRAS interaction with downstream effectors (CRAF and PI3Kα). We were unable to establish a biochemical assay for the fourth intervention point, namely, 4) GTP-KRAS interaction with its GAPs (Fig. 5 A, iv). As a reference compound for these assays, we used the KRAS^G12C-specific covalent inhibitor ARS-1620 ([35]). Compound 1 inhibited all 3 RAS cycle intervention points (1 to 3) in a dose-dependent manner (Fig. 5 B–E) in the range of 100 to 770 nM (SI Appendix, Table S6).
(§1) 217 The coordinates and structure factors of the structures have been deposited at the
(§2) 218 Protein Data Bank with the accession codes PDB Code 6GJ5, 6GJ6, 6GJ7, 6GJ8.
(§3) 221 Measurements of various protein–protein interactions were performed using the Alpha
(§4) 222 Screen technology developed by Perkin Elmer. Recombinant RAS proteins (H-, N-, K-
(§5) 223 RAS variants; all KRAS variants are based on KRAS isoform 4B (uniprot id P01116-2);
(§6) 224 KRAS (G12D) 1-169, N-terminal 6His-tag, C-terminal avi-tag was from Xtal
(§7) 225 BioStructures, Inc., KRAS (G12C) 1-169, C-terminal avi-tag, biotinylated, mutations:
(§8) 226 C51S, C80L, C118S, NRAS(wt) 1-172, C-terminal avi-tag, biotinylated; HRAS(wt) 1-
(§9) 227 166, C-terminal avi-tag, biotinylated). Biotinylation was performed in vitro with
228 recombinant BirA biotin-protein ligase as recommended by the manufacturer (Avidity
229 LLC, Aurora, Colorado, USA). Interacting proteins such as SOS1 (564-1049, N-terminal
230 GST-tag, TEV cleavage site), cRaf (1-303, N-terminal GST-tag, TEV cleavage site) and
(§10) 231 PI3KA- RBD (160-317, N-term-HIS_GST-tag) were expressed as glutathione S […]
(§11) 245 for 60 min in the dark at room temperature. Single oxygen induced fluorescence was
(§12) 246 measured at an Enspire multimode plate reader (Perkin Elmer) according to the
(§13) 247 manufacturer’s recommendations. Data were analyzed using the GraphPad Prism data […]

NCI-H358 cells = experiment: pAKT quantification (Meso Scale Discovery); type: cell-based, human
Procedure: as §1, §2, §3, §4, §5, §6, §7, §8, §9
(§14) 228 recombinant BirA biotin-protein ligase as recommended by the manufacturer (Avidity […]
as §10, §11, §12, §13
(§15) 313 added according to manufacturer’s instructions. Fluorescence intensity was determined
(§16) 314 using a fluorescence reader (2030 VICTOR X5, Perkin Elmer). […]
(§17) 319 MAPK pathway signaling (pERK, pAKT quantification) […]

[1] = system: 4 BRAF(v600E) cell lines (A375, RKO, Colo 201, SK-MEL-28); experiment: pERK modulation in BRAF V600E control cell lines; type: cell-based, human
Procedure: as §1, §2, §3, §4, §5, §6, §7, §8, §9, §14, §10, §11, §12, §13, §15, §16, §17

GCP-KRAS^G12D,C118S = GCP-KRAS^G12D,C118S (Homo sapiens, UniProt P01116, C118S/G12D); experiment: NMR KD, T35 construct (G12D, C118S), GCP-bound; type: binding; conditions: versus 17
Procedure: Mixtures of four fragments (each at 250 µM) were incubated in 25
Samples were prepared directly before data acquisition using a Tecan Freedom
88 Evo pipetting system and delivered by a Bruker Sample Rail to the magnet.
90 d11, 100 mM NaCl, 2 mM MgCl2, 0.5 mM TCEP pH 7.4 and 8% (v/v) D2O.
91 were incubated with 500 µM fragment in a 2.5 mm NMR tube at 298K and 1%
92 d6DMSO. Spectra were recorded with 32 transients and 64 data points in the indirect
93 dimension. Processing and analysis were accomplished with Topspin 3.0 (Bruker
94 BioSpin). Binders were identified by manual comparison of spectra in the presence of a
95 fragment and the respective reference spectrum.
98 Measurement of dissociation constants KD for the compounds synthesized.
99 was initially the only method that could provide K Ds for the weakly binding molecules to
100 support compound optimization. 1H/15N SoFast HMQC experiments(3) were recorded in
101 3mm NMR tubes (170µL filling) at a protein concentration of 70-100µM.
102 recorded on a Avance III 700MHz spectrometer equipped with a cryogenically cooled […]
107 DMSO. KDs were calculated from the differences in chemical shift induced by t he small […]
109 dimension were calculated according to the following equation: […]
120 (MicroCalTM, LLC Northampton, MA). Protein solutions were measured in 20 mM […]
125 were analyzed with the MicroCal PEAQ-ITC analysis software package.
GTP-KRASG12D::SOS1 = GTP-KRASG12D::SOS1 (Homo sapiens, UniProt P01116, G12D); experiment: KRASG12D::SOS1 GTP TR-FRET assay

Row | Structure (SMILES) | IC50 (KRAS) [nM] | pAKT levels (NCI-H358 cells; high serum conditions) | pAKT levels (NCI-H358 cells; starved 24 h low serum, 2 h compound, then EGF) | inhibition of pERK [1] | more potent than nonphenolic matched molecular pair 17 (GCP-KRAS^G12D,C118S) [fold] | EC50 (GTP-KRASG12D::SOS1) [µM] | IC50 (GTP-KRASG12D::SOS1) [µM]
1 | Cn1cnc(Cn2ccc3ccc(CNCc4[nH]c5ccccc5c4[C@H]4NC(=O)c5ccc(O)cc54)cc32)c1 [Compound 1] | 450 | no reduction of pAKT levels | dose-dependently reduced | no inhibition of pERK | – | – | –
2 | CN(C)Cc1[nH]c2ccccc2c1[C@H]1NC(=O)c2ccc(O)cc21 [Compound 18] | – | – | – | – | 6 | 33 | 33
